# Values quoted from earlier work as cited in publication PMC2693004 (Bioorganic & medicinal chemistry letters, 2009).
# Entries after “also recorded” stand apart in the source; their conditions may differ.
# Biological target: T1, recombinant human MAO-A (Homo sapiens, UniProt P21397)
# T1 sequence (P21397 1-527): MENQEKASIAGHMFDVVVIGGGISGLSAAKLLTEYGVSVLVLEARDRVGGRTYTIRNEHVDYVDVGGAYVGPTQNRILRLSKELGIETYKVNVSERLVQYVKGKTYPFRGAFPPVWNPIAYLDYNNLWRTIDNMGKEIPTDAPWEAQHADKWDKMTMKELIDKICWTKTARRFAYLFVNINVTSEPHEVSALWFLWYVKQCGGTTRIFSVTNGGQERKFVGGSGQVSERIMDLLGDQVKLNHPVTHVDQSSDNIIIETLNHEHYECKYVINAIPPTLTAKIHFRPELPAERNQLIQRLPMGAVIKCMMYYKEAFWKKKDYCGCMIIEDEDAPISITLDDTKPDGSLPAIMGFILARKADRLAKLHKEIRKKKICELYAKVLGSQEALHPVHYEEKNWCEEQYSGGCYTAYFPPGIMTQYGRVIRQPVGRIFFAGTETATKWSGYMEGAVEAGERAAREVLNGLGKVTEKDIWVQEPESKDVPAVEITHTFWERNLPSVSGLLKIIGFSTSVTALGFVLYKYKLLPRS
row,Compound,binding to MAO-A
1,"C(=CCc1ccccc1)Cc1ccccc1 [1,4-diphenyl-2-butene]",do not to bind
2,"Cn1c(=O)c2c(nc(/C=C/c3cccc(Cl)c3)n2C)n(C)c1=O [CSC, (E)-8-(3-chlorostyryl)caffeine]",does not bind; also recorded: do not to bind
